pEC50, pIC50: −log10 of the molar value. Where “and” joins values, the source holds several entries; their conditions need not be identical. Equal entries are not always repeated. Where two headings read alike, the source gives them in different places.
Key:
KRAS G13D = KRAS G13D (Homo sapiens, UniProt P01116+P62937, G13D); test: Ras-Raf disruption/FRET/MOA assay, KRAS G13D; format: biochemical
From the text: (§1) Disruption of B-Raf Ras-Binding Domain (BRAF^RBD) Interaction with K-Ras by Compounds of the Invention (Also Called a FRET Assay or an MOA Assay)
(§2) Note—The following protocol describes a procedure for monitoring disruption of K-Ras G12C (GMP-PNP) binding to BRAF^RBD by a compound of the invention. This protocol may also be executed substituting other Ras proteins or nucleotides, such as K-Ras G12D and K-Ras G13D.
(§3) The purpose of this biochemical assay was to measure the ability of test compounds to facilitate ternary complex formation between a nucleotide-loaded K-Ras isoform and Cyclophilin A; the resulting ternary complex disrupts binding to a BRAF^RBD construct, inhibiting K-Ras signaling through a RAF effector.
(§4) In assay buffer containing 25 mM HEPES pH 7.3, 0.002% Tween20, 0.1% BSA, 100 mM NaCl and 5 mM MgCl2, tagless Cyclophilin A, His6-K-Ras-GMPPNP, and GST-BRAF^RBD were combined in a 384-well assay plate at final concentrations of 25 μM, 12.5 nM, and 50 nM, respectively. Compound was present in plate wells as a 10-point 3-fold dilution series starting at a final concentration of 30 μM. After incubation at 25° C. for 3 hours, a mixture of anti-His Eu-W1024 and anti-GST allophycocyanin was then added to assay sample wells at final concentrations of 10 nM and 50 nM, respectively, and the reaction incubated for an additional 1.5 hours. […] Compounds that facilitate disruption of a K-Ras:RAF complex were identified as those eliciting a decrease in the TR-FRET ratio relative to DMSO control wells.

AsPC-1 (K-Ras G12D) [1] = test: CellTiter-Glo cell viability assay, AsPC-1; format: cell-based; conditions: Homo sapiens, ASPC1, 120 h, AsPC-1, K-Ras G12D, 5-day treatment; read-out: AsPC-1 Cell Viability IC50
In short: (§5)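 Luminescent viability readout on day 5, plates first brought to room temperature for ~30 min; compounds added straight to plated RAS-mutant cells. Values expressed as percent of mean DMSO signal, curves fitted with a four-parameter logistic model.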

KRAS WT = KRAS WT (Homo sapiens, UniProt P01116+P62937); test: Ras-Raf disruption/FRET/MOA assay, KRAS WT; format: biochemical
Chain of KRAS WT (P01116 1-169 isoform P01116-2 limits assumed): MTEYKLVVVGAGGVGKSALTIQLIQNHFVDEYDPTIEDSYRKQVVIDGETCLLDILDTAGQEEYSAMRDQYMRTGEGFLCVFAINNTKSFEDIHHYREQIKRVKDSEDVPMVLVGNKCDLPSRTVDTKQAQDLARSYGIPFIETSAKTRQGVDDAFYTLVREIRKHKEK
Chain of KRAS WT (P62937 whole entry): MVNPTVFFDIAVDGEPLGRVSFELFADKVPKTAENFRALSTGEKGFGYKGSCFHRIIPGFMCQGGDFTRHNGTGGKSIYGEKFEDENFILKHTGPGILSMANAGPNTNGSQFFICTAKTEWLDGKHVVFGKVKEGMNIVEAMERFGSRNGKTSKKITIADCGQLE
From the text: as §1, §2, §3, §4

NRAS G12C = biological target: T1, NRAS G12C (Homo sapiens, UniProt P01111+P62937, G12C); test: Ras-Raf disruption/FRET/MOA assay, NRAS G12C; format: biochemical
T1 construct: His6
T1 sequence (P01111 whole entry G12C): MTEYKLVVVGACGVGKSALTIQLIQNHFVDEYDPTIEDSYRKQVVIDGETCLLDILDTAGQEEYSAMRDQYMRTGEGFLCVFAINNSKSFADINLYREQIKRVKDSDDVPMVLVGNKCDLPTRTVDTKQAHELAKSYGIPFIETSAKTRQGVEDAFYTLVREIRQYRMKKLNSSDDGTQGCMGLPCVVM
T1 sequence (P62937 whole entry): as the sequence (P62937 whole entry) above
From the text: as §1, §2, §3, §4

KRAS G12S = KRAS G12S (Homo sapiens, UniProt P01116+P62937, G12S); test: Ras-Raf disruption/FRET/MOA assay, KRAS G12S; format: biochemical
Chain of KRAS G12S (P01116 1-169 isoform P01116-2 G12S limits assumed): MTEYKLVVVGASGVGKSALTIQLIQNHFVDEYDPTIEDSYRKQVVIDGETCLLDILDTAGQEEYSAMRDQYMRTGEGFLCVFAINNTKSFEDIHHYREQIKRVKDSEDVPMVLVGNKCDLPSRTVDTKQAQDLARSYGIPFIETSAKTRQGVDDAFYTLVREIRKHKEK
Chain of KRAS G12S (P62937 whole entry): as the sequence (P62937 whole entry) above
From the text: as §1, §2, §3, §4

KRAS G13C = KRAS G13C (Homo sapiens, UniProt P01116+P62937, G13C); test: Ras-Raf disruption/FRET/MOA assay, KRAS G13C; format: biochemical
Chain of KRAS G13C (P01116 1-169 isoform P01116-2 G13C limits assumed): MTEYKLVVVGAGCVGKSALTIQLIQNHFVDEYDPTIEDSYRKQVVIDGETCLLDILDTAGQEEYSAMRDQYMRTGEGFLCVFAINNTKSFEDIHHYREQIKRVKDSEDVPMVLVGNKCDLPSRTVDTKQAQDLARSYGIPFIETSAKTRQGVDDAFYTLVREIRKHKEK
Chain of KRAS G13C (P62937 whole entry): as the sequence (P62937 whole entry) above
From the text: as §1, §2, §3, §4

KRAS G12D = KRAS G12D (Homo sapiens, UniProt P01116+P62937, G12D); test: Ras-Raf disruption/FRET/MOA assay, KRAS G12D; format: biochemical
Chain of KRAS G12D (P01116 1-169 isoform P01116-2 G12D limits assumed): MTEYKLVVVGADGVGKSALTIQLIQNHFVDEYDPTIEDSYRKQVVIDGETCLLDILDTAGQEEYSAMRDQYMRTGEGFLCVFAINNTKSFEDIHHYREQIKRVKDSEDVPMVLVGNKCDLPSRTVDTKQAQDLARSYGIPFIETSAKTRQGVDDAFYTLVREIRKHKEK
Chain of KRAS G12D (P62937 whole entry): as the sequence (P62937 whole entry) above
From the text: as §1, §2, §3, §4

KRAS G12V = KRAS G12V (Homo sapiens, UniProt P01116+P62937, G12V); test: Ras-Raf disruption/FRET/MOA assay, KRAS G12V; format: biochemical
Chain of KRAS G12V (P01116 1-169 isoform P01116-2 G12V limits assumed): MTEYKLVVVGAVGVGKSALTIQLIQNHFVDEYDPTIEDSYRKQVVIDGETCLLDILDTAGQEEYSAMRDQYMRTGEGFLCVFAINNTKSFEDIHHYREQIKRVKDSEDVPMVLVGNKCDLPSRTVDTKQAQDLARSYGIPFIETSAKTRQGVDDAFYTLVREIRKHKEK
Chain of KRAS G12V (P62937 whole entry): as the sequence (P62937 whole entry) above
From the text: as §1, §2, §3, §4

KRAS G12C = KRAS G12C (Homo sapiens, UniProt P01116+P62937, G12C); test: Ras-Raf disruption/FRET/MOA assay, KRAS G12C; format: biochemical; conditions: disruption of BRAF RBD binding, with Cyclophilin A; read-out: KRAS G12C FRET IC50
Chain of KRAS G12C (P01116 1-169 isoform P01116-2 G12C limits assumed): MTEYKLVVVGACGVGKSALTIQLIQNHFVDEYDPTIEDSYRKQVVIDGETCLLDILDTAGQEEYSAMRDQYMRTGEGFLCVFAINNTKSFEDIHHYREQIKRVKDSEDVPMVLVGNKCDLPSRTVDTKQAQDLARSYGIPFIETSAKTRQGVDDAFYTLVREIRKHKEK
Chain of KRAS G12C (P62937 whole entry): as the sequence (P62937 whole entry) above
From the text: as §1, §2, §3, §4

AsPC-1 (K-Ras G12D) [2] = test: Potency assay: pERK in AsPC-1 cells; format: cell-based; conditions: Homo sapiens
NCI-H358 (K-Ras G12C) = test: CellTiter-Glo cell viability assay, H358; format: cell-based; conditions: Homo sapiens, NCI-H358, 120 h, NCI-H358, K-Ras G12C, 5-day treatment; read-out: H358 Cell Viability IC50
In short: as §5

[3] = disruption of BRAF RBD binding, with Cyclophilin A, read-out: KRAS G13D FRET IC50
[4] = disruption of BRAF RBD binding, with Cyclophilin A, read-out: KRAS WT FRET IC50
[5] = NRAS G12C, read-out: NRAS G12C FRET data IC50
[6] = disruption of BRAF RBD binding, with Cyclophilin A, read-out: KRAS G12S FRET IC50
[7] = disruption of BRAF RBD binding, with Cyclophilin A, read-out: KRAS G13C FRET IC50
[8] = disruption of BRAF RBD binding, with Cyclophilin A, read-out: KRAS G12D FRET IC50
[9] = disruption of BRAF RBD binding, with Cyclophilin A, read-out: KRAS G12V FRET IC50
[10] = ASPC1, AsPC-1 cells, K-Ras G12D, read-out: pERK EC50 (AsPC-1 KRAS G12D)

Chain of KRAS G13D (P01116 1-169 isoform P01116-2 G13D limits assumed): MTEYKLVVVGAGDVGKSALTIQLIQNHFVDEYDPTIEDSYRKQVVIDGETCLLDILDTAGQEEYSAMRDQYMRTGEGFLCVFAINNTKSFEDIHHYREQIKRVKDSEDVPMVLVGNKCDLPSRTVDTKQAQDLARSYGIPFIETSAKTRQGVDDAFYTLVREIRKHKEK
Chain of KRAS G13D (P62937 whole entry, the tested form may be a part): as the sequence (P62937 whole entry) above

| SMILES | pIC50 (KRAS G13D; [3]) | pIC50 (AsPC-1 (K-Ras G12D) [1]) | pIC50 (KRAS WT; [4]) | pIC50 (NRAS G12C; [5]) | pIC50 (KRAS G12S; [6]) | pIC50 (KRAS G12D; [8]) | pIC50 (KRAS G12V; [9]) | pIC50 (KRAS G12C) | pIC50 (NCI-H358 (K-Ras G12C)) | also measured |
| --- | --- | --- | --- | --- | --- | --- | --- | --- | --- | --- |
| CCn1c(-c2cccnc2[C@H](C)OC)c2c3cc(ccc31)-c1cccc(c1)C[C@H](NC(=O)[C@H](C(C)C)N1CC[C@H](CN=C=NCCOC)C1)C(=O)N1CCC[C@H](N1)C(=O)OCC(C)(C)C2 [Compound 122] | < 5.00 | 5.00 to 6.00 | 5.00 to 6.00 | 6.00 to 7.00 | 5.00 to 6.00 | 5.00 to 6.00 | 5.00 to 6.00 | 6.00 to 7.00 | – | pIC50 (KRAS G13C; [7]): 6.00 to 7.00 |
| CCn1c(-c2cnccc2COC)c2c3cc(ccc31)-c1cc(O)cc(c1)C[C@H](NC(=O)[C@H](C(C)C)N(C)C(=O)CN(C)C(=O)C1CN1)C(=O)N1CCC[C@H](N1)C(=O)OCC(C)(C)C2 (stereo partly drawn) [Compound 33] | – | – | – | – | – | – | – | – | – | pIC50 (KRAS G13D): 6.00 to 7.00; pIC50 (KRAS WT): 6.00 to 7.00; pIC50 (NRAS G12C; NRAS G12C FRET data IC50, NRAS G12C): 7.00 to 8.00; pIC50 (KRAS G12S): 7.00 to 8.00; pIC50 (KRAS G13C): 6.00 to 7.00; pIC50 (KRAS G12D): 6.00 to 7.00; pEC50 (AsPC-1 (K-Ras G12D) [2]; ASPC1, read-out: pERK EC50 (AsPC-1 KRAS G12D)): > 5.30; pIC50 (KRAS G12V): 6.00 to 7.00 |
| CCn1c(-c2cccnc2[C@H](C)OC)c2c3cc(ccc31)-c1cc(O)cc(c1)C[C@H](NC(=O)[C@H](C(C)C)N(C)C(=O)C1CC3(C1)CN(C(=O)[C@H]1CN1)C3)C(=O)N1CCC[C@H](N1)C(=O)OCC(C)(C)C2 [Compound 181] | – | < 5.00 | – | – | – | 6.00 to 7.00 | – | – | – | – |
| CCCN=C=NCCC(=O)N(C)[C@H](C(=O)N[C@H]1Cc2cccc(c2)-c2ccc3c(c2)c(c(-c2cnccc2COC)n3CC)CC(C)(C)COC(=O)[C@@H]2CCCN(N2)C1=O)C(C)C [22 A and B] | – | 5.00 to 6.00 | – | – | – | 5.00 to 6.00 | – | – | 5.00 to 6.00 | – |
| CCn1c(-c2cccnc2COC)c2c3cc(ccc31)-c1cc(O)cc(c1)C[C@H](NC(=O)[C@H](C(C)C)N(C)C(=O)CNC1=NCCO1)C(=O)N1CCC[C@H](N1)C(=O)OCC(C)(C)C2 [Compound 28] | – | < 5.00 | – | – | – | – | < 5.00 | – | < 5.00 | – |
| CCn1c(-c2cnccc2COC)c2c3cc(ccc31)-c1cccc(c1)C[C@H](NC(=O)[C@H](C(C)C)N(C)C(=O)[C@@H]1CC[C@@H](N=C=Nc3ccc(OC)cc3)C1)C(=O)N1CCC[C@H](N1)C(=O)OCC(C)(C)C2 [70 A and B] | < 5.00 | – | < 5.00 | 6.00 to 7.00 and < 5.00 | < 5.00 | – | < 5.00 | – | – | – |
| CCn1c(-c2cnccc2COC)c2c3cc(ccc31)-c1cc(O)cc(c1)C[C@H](NC(=O)[C@@H](CN(C)C(=O)[C@@H]1CN1)C(C)C)C(=O)N1CCC[C@H](N1)C(=O)OCC(C)(C)C2 [Compound 60] | – | 5.00 to 6.00 | – | – | – | – | < 5.00 | < 5.00 | 5.00 to 6.00 | – |
| CCn1c(-c2cccnc2[C@H](C)OC)c2c3cc(ccc31)-c1cc(O)cc(c1)C[C@H](NC(=O)[C@H](C(C)C)N1CCC3(CCN(C(=O)[C@@H]4CN4)CC3)C1=O)C(=O)N1CCC[C@H](N1)C(=O)OCC(C)(C)C2 [Compound 195] | 7.00 to 8.00 | < 5.00 | 7.00 to 8.00 | 7.00 to 8.00 | 6.00 to 7.00 | 5.00 to 6.00 | 6.00 to 7.00 | 7.00 to 8.00 | – | pIC50 (KRAS G13C; [7]): > 8.00 |
| CCn1c(-c2cnccc2COC)c2c3cc(ccc31)-c1cc(O)cc(c1)C[C@H](NC(=O)[C@H](C(C)C)N(C)C(=O)[C@H]1CCN(C(=O)N3C[C@H]3C(=O)OC)C1)C(=O)N1CCC[C@H](N1)C(=O)OCC(C)(C)C2 [Compound 111] | 6.00 to 7.00 | < 5.00 | 6.00 to 7.00 | 6.00 to 7.00 | 6.00 to 7.00 | 5.00 to 6.00 | 6.00 to 7.00 | 6.00 to 7.00 | – | pIC50 (KRAS G13C; [7]): 6.00 to 7.00 |
| CCn1c(-c2cnccc2COC)c2c3cc(ccc31)-c1cc(O)cc(c1)C[C@H](NC(=O)[C@@H](CN(C)C(=O)[C@H]1CN1)C(C)C)C(=O)N1CCC[C@H](N1)C(=O)OCC(C)(C)C2 [Compound 99] | – | < 5.00 | – | – | – | – | < 5.00 | < 5.00 | – | – |
| CCn1c(-c2cnccc2COC)c2c3cc(ccc31)-c1cccc(c1)C[C@H](NC(=O)[C@H](C(C)C)N(C)C(=O)CCN=C=NCCCN1CCOCC1)C(=O)N1CCC[C@H](N1)C(=O)OCC(C)(C)C2 [17 A and B] | – | 5.00 to 6.00 | – | – | – | – | – | 6.00 to 7.00 | 5.00 to 6.00 | pEC50 (AsPC-1 (K-Ras G12D) [2]; [10]): > 5.30 |
| CCn1c(-c2cnccc2COC)c2c3cc(ccc31)-c1cccc(c1)C[C@H](NC(=O)[C@H](C(C)C)N(C)C(=O)CCCN=C=NCCCOC)C(=O)N1CCC[C@H](N1)C(=O)OCC(C)(C)C2 [69 A and B] | – | 5.00 to 6.00 | – | – | – | – | < 5.00 | – | 5.00 to 6.00 | – |
| CCn1c(-c2cccnc2[C@H](C)OC)c2c3cc(ccc31)-c1csc(n1)C[C@H](NC(=O)[C@H](C(C)C)N(C)C(=O)N1CC(N(C)C(=O)[C@H]3CN3)C1)C(=O)N1CCC[C@H](N1)C(=O)OCC(C)(C)C2 (atropisomer, axis not shown) [Compound 218] | – | 5.00 to 6.00 | – | – | – | – | – | 6.00 to 7.00 | – | pEC50 (AsPC-1 (K-Ras G12D) [2]; [10]): > 5.30 |
| CCn1c(-c2cnccc2COC)c2c3cc(ccc31)-c1cccc(c1)C[C@H](NC(=O)[C@H](C(C)C)N(C)C(=O)[C@H]1CC[C@H](N=C=Nc3ccc(OC)cc3)C1)C(=O)N1CCC[C@H](N1)C(=O)OCC(C)(C)C2 [71 A and B] | < 5.00 | – | < 5.00 | 6.00 to 7.00 and < 5.00 | < 5.00 | < 5.00 | < 5.00 | – | – | pIC50 (KRAS G13C; [7]): < 5.00 |

Reference: US11739074B2, “Ras inhibitors” (Revolution Medicines, Inc., priority 2019, dated 2023)
